Measurements from patent publication US20240239792A1, “MODULATORS OF BCL-2 OR BCL-2/BCL-XL AND USES THEREOF” (APPICINE THERAPEUTICS (HK) LIMITED, priority 2021, published 2024).

Tests used:
DOHH2 cells = assay: CellTiter-Glo cell proliferation assay, DOHH2 cells; assay type: cell-based; settings: Homo sapiens, DOHH-2, 72 hours
Protocol: The CellTiter-Glo® Luminescent Cell Viability Assay (Promega, G7573) was used to study the cellular potency of disclosed compounds herein. The cells were harvested during the logarithmic growth period and counted with hemocytometer. The DOHH2 cells were seeded at 1.6*10^4 in 90 ul DMEM medium supplemented with 10% fetal bovine serum (FBS) (as RS4;11 cells were seeded at 4000 in 90 ul RPMI-1640 medium with 10% FBS) per well in 96-well plates and treated with 10 ul of a serial dilution of compounds disclosed herein (maximum concentration and dilution ratio determined by the results of pre-experiment may vary) for 72 hours in a 5% CO2 incubator at 37° C. Cell viability was assessed according to the manufacturer's recommendations. After the plates return to the room temperature, 100 ul of CellTiter-Glo® reagent was added to 100 ul of cell culture. The mixture was agitated on an orbital shaker for 2 minutes or placed it at room temperature for 10 minutes to allow cell lysis and stabilization of luminescent signals. Luminescent signals were recorded using Envision 2104 instrument. And GI50 values were then calculated.

BCL-2 = target: T1, BCL-2 (Homo sapiens, UniProt P10415); assay: HTRF BCL-2/BAK assay (Cisbio); assay type: binding; settings: recombinant human Tag1-BCL-2 2 nM, Tag2-BAK 10 nM
T1 construct: purchased Cisbio 63ADK000CB01PEG
Protocol: Then the pre-mixed anti-Tag1-Eu^3+ and anti-tag2-XL665 were added to the plate and further incubated at room temperature for another 2 hours. The signals ([…]) were read on Envision 2104 instrument. The IC50 for each compound was derived from fitting the signal of 665/615 nM to the increasing compound concentration.
Using the above assays, the following compounds were tested.

T1 sequence (P10415 whole entry): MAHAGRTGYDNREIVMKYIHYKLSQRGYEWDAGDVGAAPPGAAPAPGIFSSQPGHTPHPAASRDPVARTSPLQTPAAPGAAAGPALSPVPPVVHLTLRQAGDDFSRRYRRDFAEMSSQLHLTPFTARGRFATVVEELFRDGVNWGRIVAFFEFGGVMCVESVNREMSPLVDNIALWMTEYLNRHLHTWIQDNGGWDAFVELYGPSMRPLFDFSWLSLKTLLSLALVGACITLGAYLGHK

Structure (SMILES)	IC50 (BCL-2)	GI50 (DOHH2 cells)
CC1(C)CCC2(CC1)CC(CNc1ccc(S(=O)(=O)NC(=O)c3ccc(N4CCN([C@@H]5CCCCc6c(Cl)cccc65)CC4)cc3Oc3cnc4[nH]ccc4c3)cc1[N+](=O)[O-])C2 [Compound 136, (R)-2-((1H-pyrrolo[2,3-b]pyridin-5-yl)oxy)-4-(4-(1-chloro-6,7,8,9-tetrahydro-5H-benzo[7]annulen-5-yl)piperazin-1-y1)-N-((4-(((7,7-dimethylspiro[3.5]nonan-2-yl)methyl)amino)-3-nitrophenyl)sulfonyl)benzamide]	–	> 5000 nM
O=C(NS(=O)(=O)c1cccc([N+](=O)[O-])c1)c1ccc(N2CCN(C3CCCc4cccc(-c5ccsc5)c43)CC2)cc1Oc1cnc2[nH]ccc2c1 (stereo not shown) [Compound 11, 2-((1H-pyrrolo[2,3-b]pyridin-5-yl)oxy)-N-((3-nitrophenyl)sulfonyl)-4-(4-(8-(thiophen-3-yl)-1,2,3,4-tetrahydronaphthalen-1-yl)piperazin-1-yl)benzamide]	200 to 2000 nM	–
O=C(NS(=O)(=O)c1cccc([N+](=O)[O-])c1)c1ccc(N2CCN(C3CCCc4cccc(-c5cccc(Cl)c5)c43)CC2)cc1Oc1cnc2[nH]ccc2c1 (stereo not shown) [Compound 14, 2-((1H-pyrrolo[2,3-b]pyridin-5-yl)oxy)-4-(4-(8-(3-chlorophenyl)-1,2,3,4-tetrahydronaphthalen-1-yl)piperazin-1-yl)-N-((3-nitrophenyl)sulfonyl)benzamide]	200 to 2000 nM	–
O=C(NS(=O)(=O)c1cccc([N+](=O)[O-])c1)c1ccc(N2CCN(C3CCCc4cccc(-c5cccs5)c43)CC2)cc1Oc1cnc2[nH]ccc2c1 (stereo not shown) [Compound 15, 2-((1H-pyrrolo[2,3-b]pyridin-5-yl)oxy)-N-((3-nitrophenyl)sulfonyl)-4-(4-(8-(thiophen-2-yl)-1,2,3,4-tetrahydronaphthalen-1-yl)piperazin-1-yl)benzamide]	200 to 2000 nM	–
O=C(NS(=O)(=O)c1cccc([N+](=O)[O-])c1)c1ccc(N2CCN(C3CCOc4ccccc43)CC2)cc1Oc1cnc2[nH]ccc2c1 (stereo not shown) [Compound 9, 2-((1H-pyrrolo[2,3-b]pyridin-5-yl)oxy)-4-(4-(chroman-4-yl)piperazin-1-yl)-N-((3-nitrophenyl)sulfonyl)benzamide]	200 to 2000 nM	–
O=C(NS(=O)(=O)c1cccc([N+](=O)[O-])c1)c1ccc(N2CCN(C3CCCc4ccccc43)CC2)cc1Oc1cnc2[nH]ccc2c1 (stereo not shown) [Compound 1, 2-((1H-pyrrolo[2,3-b]pyridin-5-yl)oxy)-N-((3-nitrophenyl)sulfonyl)-4-(4-(1,2,3,4-tetrahydronaphthalen-1-yl)piperazin-1-yl)benzamide]	200 to 2000 nM	–
O=C(NS(=O)(=O)c1cccc([N+](=O)[O-])c1)c1ccc(N2CCN(C3CCc4ccccc43)CC2)cc1Oc1cnc2[nH]ccc2c1 (stereo not shown) [Compound 3, 2-((1H-pyrrolo[2,3-b]pyridin-5-yl)oxy)-4-(4-(2,3-dihydro-1H-inden-1-yl)piperazin-1-yl)-N-((3-nitrophenyl)sulfonyl)benzamide]	200 to 2000 nM	–
O=C(NS(=O)(=O)c1cccc([N+](=O)[O-])c1)c1ccc(N2CCN(C3CCCc4cccc(-c5ccccc5)c43)CC2)cc1Oc1cnc2[nH]ccc2c1 (stereo not shown) [Compound 8, 2-((1H-pyrrolo[2,3-b]pyridin-5-yl)oxy)-N-((3-nitrophenyl)sulfonyl)-4-(4-(8-phenyl-1,2,3,4-tetrahydronaphthalen-1-yl)piperazin-1-yl)benzamide]	200 to 2000 nM	–

Second part, led by results:

IC50 (BCL-2)	Structure (SMILES)	GI50 (DOHH2 cells)
< 20 nM	O=C(NS(=O)(=O)c1ccc(NCC2CC3(CCC(F)(F)CC3)C2)c([N+](=O)[O-])c1)c1ccc(N2CCN([C@@H]3CCCCc4c(Cl)cccc43)CC2)cc1Oc1cnc2[nH]ccc2c1 [Compound 135, (R)-2-((1H-pyrrolo[2,3-b]pyridin-5-yl)oxy)-4-(4-(1-chloro-6,7,8,9-tetrahydro-5H-benzo[7]annulen-5-yl)piperazin-1-yl)-N-((4-(((7,7-difluorospiro[3.5]nonan-2-y1)methyl)amino)-3-nitrophenyl)sulfonyl)benzamide]	< 50 nM
20 to 200 nM	O=C(NS(=O)(=O)c1ccc(NCC2CCOCC2)c([N+](=O)[O-])c1)c1ccc(N2CCN(C3CCc4ccccc43)CC2)cc1Oc1cnc2[nH]ccc2c1 (stereo not shown) [Compound 4, 2-((1H-pyrrolo[2,3-b]pyridin-5-yl)oxy)-4-(4-(2,3-dihydro-1H-inden-1-yl)piperazin-1-yl)-N-((3-nitro-4-(((tetrahydro-2H-pyran-4-yl)methyl)amino)phenyl)sulfonyl)benzamide]	500 to 5000 nM
< 20 nM	CC(C)(C)OC(=O)N1CC2CC1CC2CNc1ccc(S(=O)(=O)NC(=O)c2ccc(N3CCN([C@@H]4CCCCc5c(Cl)cccc54)CC3)cc2Oc2cnc3[nH]ccc3c2)cc1[N+](=O)[O-] (stereo partly drawn) [Compound 103, tert-butyl 5-(((4-(N-(2-((1H-pyrrolo[2,3-b]pyridin-5-yl)oxy)-4-(4-((R)-1-chloro-6,7,8,9-tetrahydro-5H-benzo[7]annulen-5-yl)piperazin-1-yl)benzoyl)sulfamoyl)-2-nitrophenyl)amino)methyl)-2-azabicyclo[2.2.1]heptane-2-carboxylate]	50 to 500 nM
20 to 200 nM	O=C(NS(=O)(=O)c1ccc(NCC2CCOCC2)c([N+](=O)[O-])c1)c1ccc(N2CC3(CCN(C4CCCc5ccccc54)CC3)C2)cc1Oc1cnc2[nH]ccc2c1 (stereo not shown) [Compound 92, 2-((1H-pyrrolo[2,3-b]pyridin-5-yl)oxy)-N-((3-nitro-4-(((tetrahydro-2H-pyran-4-yl)methyl)amino)phenyl)sulfonyl)-4-(7-(1,2,3,4-tetrahydronaphthalen-1-yl)-2,7-diazaspiro[3.5]nonan-2-yl)benzamide]	500 to 5000 nM
< 20 nM	O=C(O)CCN1CCC2(CC1)CC(CNc1ccc(S(=O)(=O)NC(=O)c3ccc(N4CCN([C@@H]5CCCCc6c(Cl)cccc65)CC4)cc3Oc3cnc4[nH]ccc4c3)cc1[N+](=O)[O-])C2 [Compound 126, (R)-3-(2-(((4-(N-(2-((1H-pyrrolo[2,3-b]pyridin-5-yl)oxy)-4-(4-(1-chloro-6,7,8,9-tetrahydro-5H-benzo[7]annulen-5-yl)piperazin-1-yl)benzoyl)sulfamoyl)-2-nitrophenyl)amino)methyl)-7-azaspiro[3.5]nonan-7-yl)propanoic acid]	< 50 nM
20 to 200 nM	O=C(NS(=O)(=O)c1ccc(NCC2CCOCC2)c([N+](=O)[O-])c1)c1ccc(N2CCN(C3CCCCc4c(C5CCCC5)cccc43)CC2)cc1Oc1cnc2[nH]ccc2c1 (stereo not shown) [Compound 55, 2-((1H-pyrrolo[2,3-b]pyridin-5-yl)oxy)-4-(4-(1-cyclopentyl-6,7,8,9-tetrahydro-5H-benzo[7]annulen-5-yl)piperazin-1-yl)-N-((3-nitro-4-(((tetrahydro-2H-pyran-4-yl)methyl)amino)phenyl)sulfonyl)benzamide]	> 5000 nM
20 to 200 nM	O=C(NS(=O)(=O)c1ccc(NCC2CCOCC2)c([N+](=O)[O-])c1)c1ccc(N2CC3(C2)CN(C2CCCCc4ccccc42)C3)cc1Oc1cnc2[nH]ccc2c1 (stereo not shown) [Compound 95, 2-((1H-pyrrolo[2,3-b]pyridin-5-yl)oxy)-N-((3-nitro-4-(((tetrahydro-2H-pyran-4-yl)methyl)amino)phenyl)sulfonyl)-4-(6-(6,7,8,9-tetrahydro-5H-benzo[7]annulen-5-yl)-2,6-diazaspiro[3.3]heptan-2-yl)benzamide]	500 to 5000 nM
< 20 nM	CC(C)S(=O)(=O)N1CCC2(CC1)CC(CNc1ccc(S(=O)(=O)NC(=O)c3ccc(N4CCN([C@@H]5CCCCc6c(Cl)cccc65)CC4)cc3Oc3cnc4[nH]ccc4c3)cc1[N+](=O)[O-])C2 [Compound 128, (R)-2-((1H-pyrrolo[2,3-b]pyridin-5-yl)oxy)-4-(4-(1-chloro-6,7,8,9-tetrahydro-5H-benzo[7]annulen-5-yl)piperazin-1-yl)-N-((4-(((7-(isopropylsulfony1)-7-azaspiro[3.5]nonan-2-yl)methyl)amino)-3-nitrophenyl)sulfony1)benzamide]	< 50 nM
< 20 nM	CS(=O)(=O)N1CCc2ccccc2C(N2CCN(c3ccc(C(=O)NS(=O)(=O)c4ccc(NCC5CCOCC5)c([N+](=O)[O-])c4)c(Oc4cnc5[nH]ccc5c4)c3)CC2)C1 (stereo not shown) [Compound 60, 2-((1H-pyrrolo[2,3-b]pyridin-5-yl)oxy)-4-(4-(3-(methylsulfonyl)-2,3,4,5-tetrahydro-1H-benzo[d]azepin-1-yl)piperazin-1-yl)-N-((3-nitro-4-(((tetrahydro-2H-pyran-4-yl)methyl)amino)phenyl)sulfonyl)benzamide]	> 5000 nM
20 to 200 nM	O=C(NS(=O)(=O)c1ccc(NCC2CCOCC2)c([N+](=O)[O-])c1)c1ccc(N2CCN(C3CCOc4ccccc43)CC2)cc1Oc1cnc2[nH]ccc2c1 (stereo not shown) [Compound 17, 2-((1H-pyrrolo[2,3-b]pyridin-5-yl)oxy)-4-(4-(chroman-4-yl)piperazin-1-yl)-N-((3-nitro-4-(((tetrahydro-2H-pyran-4-yl)methyl)amino)phenyl)sulfonyl)benzamide]	500 to 5000 nM
